From PMC9981747, “A covalent BTK ternary complex compatible with targeted protein degradation” (Nature Communications, 2023)
“And” between values parts separate entries of the source, which are not always exact repeats. Equal entries are not always repeated.

What was measured:
Format in all cases: cell-based
BTK^FL [1] = molecular target: T1, BTK^FL (Homo sapiens, UniProt Q06187+Q13490); assay: Tetracycline-inducible (T-REx) cIAP1^FL degradation of pre-formed BTK^FL~BCCov in Expi293; conditions: pre-formed BTK^FL~BCCov (20 µM, 18 h), then tetracycline induction of cIAP1^FL
T1 construct: we used a full-length BTK (aa1-659) with a C terminal Tobacco Etch Virus protease (TEV) site; expressed in transfected cells; host or cells: Expi293 (HEK293)
Protocol: For assays involving inducible cIAP1 expression, 18 h after compound treatment cells were treated with a final concentration of 1.0 µg/mL tetracycline (Teknova Cat. #T3325) and shaken for another 18 h. These samples were processed for western blotting as detailed above. Washout condition consisted of 4 × 10 mL PBS resuspension, centrifugation, and removal repeated for four cycles before resuspension in cellular media.

BTK^FL [2] = molecular target: T2, BTK^FL (Homo sapiens, UniProt Q06187); assay: Covalent modification of BTK^FL in Expi293 cells without cIAP1, immunopurification and intact mass spectrometry; conditions: for Cov Form Over Time (% covalent bond formation): 5 µM, no exogenous cIAP1, replicates; for BTK^FL covalently modified: 18 h, n = 1
T2 construct: we used a full-length BTK (aa1-659) with a C terminal Tobacco Etch Virus protease (TEV) site; expressed in transfected cells; host or cells: Expi293 (HEK293)
Protocol: (§1) For covalent modification detection assays, the compound was added to Expi293 cells after enhancer treatment. At each timepoint 10 mL of cells were harvested, rapidly cooled to 4 °C in an ice bath, and centrifuged at 100 x g at 4 °C for 5 min. The pellet was washed twice with ice-cold PBS, snap-frozen in liquid nitrogen, and stored at −80 °C. Each pellet was resuspended in 0.1 mL ice-cold RIPA Buffer supplemented with 40 µM BCNC (to outcompete any remaining BCCov), protease inhibitor, and benzonase, and sonicated with 10 brief blasts at power 20. Lysate was centrifuged at 15 K x g for 20 min at 4 °C and prepared for western blotting as detailed above. When samples were evaluated for covalent adduct formation, a purification step was required. Briefly, the ~1 mL of clarified lysate was added to 9 mL of FLAG binding buffer (25 mM HEPES 7.5, 300 mM NaCl, 10% glycerol). These samples were incubated with 250 µL of anti-FLAG M2 affinity resin (Millipore-Sigma Cat. # A2220) for 3 h at 4 °C with gentle nutation. Samples were washed via gravity column filtration and eluted with 0.2 mg/ml FLAG Peptide (DYKDDDDK, CPC Scientific Peptide Company). Each sample was concentrated to 0.1 mg/mL using an Amicon Ultra-15 Centrifugal filter with a 50 kDa MWCO (Millipore-Sigma Cat. # UFC905024). Details on mass spectrometry analysis are below.
Each sample was analyzed using intact mass spectrometry under denaturing conditions using an Agilent 6530 QToF Mass Spectrometer coupled with an Agilent Infinity 1290 UPLC chromatography system. Spectra were analyzed using ChemLaunch v1.6.8 (Healex Systems), Mass Hunter V7.0 (Agilent Technologies), and BioConfirm v8.0 (Agilent Technologies). For all proteins analyzed, approximately 2 μl of 0.1–0.4 mg/ml protein sample was added to 8 μl 0.2% trifluoroacetic acid (TFA) (Sigma T6508–100 mL). Subsequently, 5 μl of each sample was injected onto the instrument. Depending on the resolution, the amount of protein loaded was altered. Theoretical versus observed molecular weight is presented in Supplementary Table 1. While we have not experimentally determined the post-translational modifications (PTMs) resulting in observed molecular weight, we believe a loss of methionine and acetylation are likely. Variations between theoretical and observed masses may also be due to the resolution of the deconvoluted spectra leading to imperfect peak identification, particularly for a protein with heterogeneous phosphorylation states. Variation of several Daltons is observed between biological replicates and individual experiments.

BTK^FL-C481S = molecular target: T3, BTK^FL-C481S (Homo sapiens, UniProt Q06187, C481S); assay: Covalent modification of BTK^FL-C481S in Expi293 cells, intact mass spectrometry; conditions: 20 µM
T3 construct: we used a full-length BTK (aa1-659) with a C terminal Tobacco Etch Virus protease (TEV) site; expressed in transfected cells; host or cells: Expi293 (HEK293)
Protocol: as §1, with “These samples were incubated with 250 µL of anti-FLAG M2 affinity resin (Millipore-Sigma Cat. # A2220) for 3 h at 4 °C with gentle nutation. Samples were washed via gravity column filtration and eluted with 0.2 mg/ml FLAG Peptide (DYKDDDDK, CPC Scientific Peptide Company). Each sample was concentrated to 0.1 mg/mL using an Amicon Ultra-15 Centrifugal filter with a 50 kDa MWCO (Millipore-Sigma Cat. # UFC905024). Details on mass spectrometry analysis are below.” left out
Each sample was analyzed using intact mass spectrometry under denaturing conditions using an Agilent 6530 QToF Mass Spectrometer coupled with an Agilent Infinity 1290 UPLC chromatography system. Spectra were analyzed using ChemLaunch v1.6.8 (Healex Systems), Mass Hunter V7.0 (Agilent Technologies), and BioConfirm v8.0 (Agilent Technologies). For all proteins analyzed, approximately 2 μl of 0.1–0.4 mg/ml protein sample was added to 8 μl 0.2% trifluoroacetic acid (TFA) (Sigma T6508–100 mL). […]

BTK^T474I = molecular target: T4, BTK^T474I (Homo sapiens, UniProt Q06187+Q13490, T474I); assay: Expi293 dose-dependent degradation of BTK gatekeeper mutant; conditions: Expi293 with cIAP1^FL
T4 construct: we used a full-length BTK (aa1-659) with a C terminal Tobacco Etch Virus protease (TEV) site; expressed in transfected cells; host or cells: Expi293 (HEK293)
Protocol: Gibco Expi293 cell line Transfection Kit (Cat.# A14524) was cultured according to the manufacturers conditions. Cells were grown at 37 °C with 5% CO2 to 4 × 10^6 cells/mL using an orbital shaker set to 95 RPM. Next cells were split to 2 × 10^6 cells/mL and transfected with plasmid DNA at a 1 µg/mL final concentration in Optimem (Gibco 31985070) using the Expifectamine 293 transfection reagent according to manufacturer’s conditions. After approximately 18 h, enhancers 1 and 2 (provided with kit). Viability was typically about 85%. When cIAP1^FL was transfected, it was detected via α-cIAP1 antibody there was typically some autoubiquitination detected, and thus often appeared as a laddered or smeared band via western blotting. When BTK^FL variants were transfected, they were detected using anti-BTK antibody (D3H5).
For dose-dependent degradation assays, cells were plated in a 24-well format and placed on a separate orbital shaker set to 115 RPM. […] Clarified lysate was harvested and quantified using a Pierce BCA Assay Kit (Cat. #23225), and 20 µg of the sample was loaded into a 4–15% Criterion TGX gel (Bio-Rad, 5678085) and transferred to a nitrocellulose membrane (Life Technologies Cat. #IB23001) using an iBlot 2 (Life Technologies Cat. #IB21001). Proteins were detected using an iBind system (Life Technologies SLF2020). […]

T2 sequence (Q06187 whole entry, the tested form may be a part): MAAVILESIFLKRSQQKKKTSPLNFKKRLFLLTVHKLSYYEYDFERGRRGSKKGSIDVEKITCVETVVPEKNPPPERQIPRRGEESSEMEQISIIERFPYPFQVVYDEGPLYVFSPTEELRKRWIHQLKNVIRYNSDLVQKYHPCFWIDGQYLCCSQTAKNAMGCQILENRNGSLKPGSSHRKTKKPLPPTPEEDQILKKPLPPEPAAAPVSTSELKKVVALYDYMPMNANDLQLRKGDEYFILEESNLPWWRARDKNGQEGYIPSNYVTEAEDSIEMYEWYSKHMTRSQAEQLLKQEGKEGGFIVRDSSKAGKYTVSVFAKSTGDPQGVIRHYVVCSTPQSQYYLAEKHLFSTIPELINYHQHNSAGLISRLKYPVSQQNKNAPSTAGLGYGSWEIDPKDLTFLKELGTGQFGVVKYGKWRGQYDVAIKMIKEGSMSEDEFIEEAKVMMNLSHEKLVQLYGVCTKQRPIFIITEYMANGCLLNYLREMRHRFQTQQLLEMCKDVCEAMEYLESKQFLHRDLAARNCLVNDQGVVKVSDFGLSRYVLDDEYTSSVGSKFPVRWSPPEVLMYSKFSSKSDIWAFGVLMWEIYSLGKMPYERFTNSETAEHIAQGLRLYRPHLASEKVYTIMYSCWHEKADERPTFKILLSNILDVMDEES
T4 sequence (Q06187 whole entry T474I, the tested form may be a part): as the sequence (Q06187 whole entry, the tested form may be a part) above, with T474I counted along it
T4 sequence (Q13490 whole entry, the tested form may be a part): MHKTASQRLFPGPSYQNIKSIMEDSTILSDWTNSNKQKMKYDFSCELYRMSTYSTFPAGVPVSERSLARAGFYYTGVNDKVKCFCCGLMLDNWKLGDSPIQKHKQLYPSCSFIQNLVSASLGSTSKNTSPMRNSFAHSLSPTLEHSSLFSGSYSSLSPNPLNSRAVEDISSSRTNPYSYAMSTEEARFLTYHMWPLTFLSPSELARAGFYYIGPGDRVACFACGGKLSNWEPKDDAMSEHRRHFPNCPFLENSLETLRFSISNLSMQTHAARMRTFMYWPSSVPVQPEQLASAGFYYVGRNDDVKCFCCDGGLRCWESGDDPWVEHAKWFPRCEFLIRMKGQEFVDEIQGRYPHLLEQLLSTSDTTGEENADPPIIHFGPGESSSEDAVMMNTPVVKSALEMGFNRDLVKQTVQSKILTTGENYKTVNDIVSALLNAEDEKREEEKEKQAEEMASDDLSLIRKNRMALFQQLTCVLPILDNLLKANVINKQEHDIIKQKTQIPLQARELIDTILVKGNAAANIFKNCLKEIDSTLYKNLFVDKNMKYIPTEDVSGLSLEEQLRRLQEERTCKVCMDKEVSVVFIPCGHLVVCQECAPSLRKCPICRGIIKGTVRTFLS
T3 sequence (Q06187 whole entry C481S, the tested form may be a part): as the sequence (Q06187 whole entry, the tested form may be a part) above, with C481S counted along it
T1 sequence (Q06187 whole entry, the tested form may be a part): as the sequence (Q06187 whole entry, the tested form may be a part) above
T1 sequence (Q13490 whole entry, the tested form may be a part): as the sequence (Q13490 whole entry, the tested form may be a part) above

Structure (SMILES): CNC(C)C(=O)NC(C(=O)N1CC(NC(=O)COCCN2CCN(CC=CC(=O)N3CCCC(n4nc(-c5ccc(Oc6ccccc6)cc5)c5c(N)ncnc54)C3)CC2)CC1C(=O)NC1CCCc2ccccc21)C1CCCCC1 (stereo not drawn) [BCCov]
- Dmax (BTK^FL [1]): ~70%
- Cov Form Over Time (% covalent bond formation) (BTK^FL [2]; 0.5 h): 5.67% and 6.21% and 5.89%
- Cov Form Over Time (% covalent bond formation) (BTK^FL [2]; 1 h): 8.64% and 10.21% and 9.49%
- Cov Form Over Time (% covalent bond formation) (BTK^FL [2]; 2 h): 14.47% and 13.21% and 14.33%
- Cov Form Over Time (% covalent bond formation) (BTK^FL [2]; 3.5 h): 19.26% and 19.25% and 19.86%
- Cov Form Over Time (% covalent bond formation) (BTK^FL [2]; 5.5 h): 31.90% and 34.21% and 30.28%
- Cov Form Over Time (% covalent bond formation) (BTK^FL [2]; 7 h): 34.24% and 36.81% and 34.22%
- Cov Form Over Time (% covalent bond formation) (BTK^FL [2]; 17 h): 33.97% and 36.13% and 34.85%
- BTK^FL covalently modified (BTK^FL [2]; 5 uM): 35.00%
- BTK^FL covalently modified (BTK^FL [2]; 10 uM): 64.70%
- BTK^FL covalently modified (BTK^FL [2]; 15 uM): 77.49%
- BTK^FL covalently modified (BTK^FL [2]; 30 uM): 94.20%
- time that the level of covalent modification remains stable post-treatment (BTK^FL [2]; single dose 20 µM): at least 48 h
- covalent adduct formation on BTK^FL-C481S (BTK^FL-C481S): no similar adduct
- degradation of BTK^T474I (BTK^T474I): loss of activity
